Laboratory results published in patent publication US20240368109A1, “ALLOSTERIC MODULATORS OF NICOTINIC ACETYLCHOLINE RECEPTORS” (MERCK SHARP & DOHME LLC, priority 2021, published 2024).

Target: human α7 nAChR (Homo sapiens (Human), UniProt P36544)
Test: Automated patch-clamp electrophysiology functional assay (Assay A)
Assay type: cell-based
Conditions: IonFlux HT whole-cell population patch, HEK cells expressing human α7/RIC-3, 40 μM acetylcholine
Method in brief: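 Whole-cell population patch clamp on HEK cells stably co-expressing human α7 and RIC-3, held at −60 mV, room temperature. Compounds tested at three ascending concentrations per recording with or without 40 μM acetylcholine; currents normalized to the 40 μM acetylcholine-evoked reference response to give agonist and potentiation EC50.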

human α7 nAChR, sequence (P36544 23-502): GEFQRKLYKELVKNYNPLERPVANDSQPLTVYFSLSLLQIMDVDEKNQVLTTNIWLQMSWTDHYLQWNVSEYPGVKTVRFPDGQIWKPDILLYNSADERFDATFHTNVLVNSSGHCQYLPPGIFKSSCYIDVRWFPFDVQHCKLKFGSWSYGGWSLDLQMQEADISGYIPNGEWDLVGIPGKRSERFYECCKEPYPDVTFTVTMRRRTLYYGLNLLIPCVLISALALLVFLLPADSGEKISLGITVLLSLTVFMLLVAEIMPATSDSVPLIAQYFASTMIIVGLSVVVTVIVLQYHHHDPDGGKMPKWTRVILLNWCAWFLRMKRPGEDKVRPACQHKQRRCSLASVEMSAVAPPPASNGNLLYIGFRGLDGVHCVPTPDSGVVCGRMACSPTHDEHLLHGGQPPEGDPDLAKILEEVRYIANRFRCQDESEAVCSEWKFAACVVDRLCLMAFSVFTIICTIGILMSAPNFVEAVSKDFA

Row | Compound | EC50 (electrophysiology EC50 values) [µM] | EC50 (potency class) [µM]
1 | O=C(NCc1ccc(Oc2ccccn2)cc1)C1C2Oc3ccc(F)cc3C21 (stereo not drawn) [Example C34, exo-5-fluoro-N-({4-[(pyridin-2-yl)oxy]phenyl}methyl)-1a,6b-dihydro-1H-cyclopropa[b][1]benzofuran-1-carboxamide] | 0.81 | 0.5 to 5
2 | COc1cc(C2(NC(=O)C3C4COc5ccccc5C43)CC2)ccn1 (stereo not drawn) [Example A10, exo-N-[1-(2-methoxypyridin-4-yl)cyclopropyl]-1,1a,2,7b-tetrahydrocyclopropa[c][1]benzopyran-1-carboxamide] |  | 0.5 to 5
3 | O=C(N[C@@H](C(F)F)C1CCCCC1)C1C2COc3ccc(F)cc3C21 (stereo partly drawn) [Example A7, exo-N-[(1R)-1-cyclohexyl-2,2-difluoroethyl]-6-fluoro-1,1a2,7b-tetrahydrocyclopropa[c][1]benzopyran-1-carboxamide] | 0.8 | 0.5 to 5
4 | O=C(NCc1nc(-c2ccccc2)no1)C1C2Oc3ccc(F)cc3C21 (stereo not drawn) [Example 7, exo-5-Fluoro-N-[(3-phenyl-1,2,4-oxadiazol-5-yl)methyl]-1a,6b-dihydro-1H-cyclopropa[b][1]benzofuran-1-carboxamide] | 0.05 | ≤ 0.1
5 | O=C(NC1(c2ccccc2)CCC1)C1C2COc3ccc(F)cc3C21 (stereo not drawn) [Example A8, exo-6-fluoro-N-(1-phenylcyclobutyl)-1,1a,2,7b-tetrahydrocyclopropa[c][1]benzopyran-1-carboxamide] | 1 | 0.5 to 5
6 | CCOc1ccc([C@H](COC)NC(=O)C2C3Oc4ccc(-c5nn[nH]n5)cc4C32)cc1 (stereo partly drawn) [Example 5, exo-N-[(1R)-1-(4-Ethoxyphenyl)-2-methoxyethyl]-5-(2H-tetrazol-5-yl)-1a,6b-dihydro-1H-cyclopropa[b][1]benzofuran-1-carboxamide] | 1.5 | 0.5 to 5
7 | O=C(N[C@@H](CO)C1CCCCC1)C1C2Sc3ccccc3C21 (stereo partly drawn) [Example C2, exo-N-[(1R)-1-cyclohexyl-2-hydroxyethyl]-1a,6b-dihydro-1H-cyclopropa[b][1]benzothiophene-1-carboxamide] | 2.3 | 0.5 to 5
8 | CCOc1ccc([C@H](COC)NC(=O)C2C3Oc4ccc(-c5cn(Cc6ccccc6)nn5)cc4C32)cc1 (single isomer, unassigned) [Example 6] | 1.1 | 0.5 to 5
9 | CCOc1ccc([C@H](CF)NC(=O)C2C3COc4ccc(F)cc4C32)cn1 (stereo partly drawn) [Example A15, exo-N-[(1R)-1-(6-ethoxypyridin-3-yl)-2-fluoroethyl]-6-fluoro-1,1a,2,7b-tetrahydrocyclopropa[c][1]benzopyran-1-carboxamide] | 1.5 | 0.5 to 5
10 | COC(CNC(=O)[C@@H]1[C@H]2COc3ccc(F)cc3[C@H]21)C1CCCCC1 (single isomer, unassigned) [Example A4, exo-N-(2-cyclohexyl-2-methoxyethyl)-6-fluoro-1,1a,2,7b-tetrahydrocyclopropa[c][1]benzopyran-1-carboxamide] |  | 0.5 to 5
11 | O=C(NC1(c2ccc(F)cc2)COC1)C1C2COc3ccccc3C21 (stereo not drawn) [Example A1, exo-N-[3-(4-fluorophenyl)oxetan-3-yl]-1,1a,2,7b-tetrahydrocyclopropa[c][1]benzopyran-1-carboxamide] | 1.5 | 0.5 to 5
12 | O=C(NC1(c2ccc(F)cc2)CC(O)C1)C1C2COc3ccccc3C21 (stereo not drawn) [Example A5, exo-N-[1-(4-fluorophenyl)-3-hydroxycyclobutyl]-1,1a,2,7b-tetrahydrocyclopropa[c][1]benzopyran-1-carboxamide] | 4.6 | 0.5 to 5

Next, values leading:

Row | EC50 (electrophysiology EC50 values) [µM] | EC50 (potency class) [µM] | Compound
13 | 1.2 | 0.5 to 5 | CCOc1ccc([C@H](COC)NC(=O)C2C3Oc4ccccc4C32)cc1 (stereo partly drawn) [Example B1, exo-N-[(1R)-1-(4-ethoxyphenyl)-2-methoxyethyl]-1a,6b-dihydro-1H-cyclopropa[b][1]benzofuran-1-carboxamide]
14 | 1.8 | 0.5 to 5 | CC(NC(=O)C1C2Oc3ccc(F)cc3C21)c1ccc(Br)cc1 (stereo not drawn) [Example C37, exo-N-[1-(4-bromophenyl)ethyl]-5-fluoro-1a,6b-dihydro-1H-cyclopropa[b][1]benzofuran-1-carboxamide]
15 | 4.8 | 0.5 to 5 | O=C(N[C@H]1COCc2ccc(F)cc21)C1C2Oc3ccc(F)cc3C21 (stereo partly drawn) [Example C1, exo-5-fluoro-N-[(4R)-6-fluoro-3,4-dihydro-1H-2-benzopyran-4-yl]-1a,6b-dihydro-1H-cyclopropa[b][1]benzofuran-1-carboxamide]
16 | 0.63 | 0.5 to 5 | CCOc1ccc([C@H](COC)NC(=O)C2C3Oc4cc(OC)ccc4C32)cc1 (stereo partly drawn) [Example B17, exo-N-[(1R)-1-(4-ethoxyphenyl)-2-methoxyethyl]-4-methoxy-1a,6b-dihydro-1H-cyclopropa[b][1]benzofuran-1-carboxamide]
17 |  | 5 to 50 | CCOc1ccc([C@H](COC)NC(=O)C2C3Oc4ccc(-c5cncnc5)cc4C32)cc1 (stereo partly drawn) [Example B11, exo-N-[(1R)-1-(4-ethoxyphenyl)-2-methoxyethyl]-5-(pyrimidin-5-yl)-1a,6b-dihydro-1H-cyclopropa[b][1]benzofuran-1-carboxamide]
18 | 1.1 | 0.5 to 5 | O=C(N[C@H]1CCOc2cc(F)c(F)cc21)C1C2Oc3ccc(F)cc3C21 (stereo partly drawn) [Example C7, exo-N-[(4S)-6,7-difluoro-3,4-dihydro-2H-1-benzopyran-4-yl]-5-fluoro-1a,6b-dihydro-1H-cyclopropa[b][1]benzofuran-1-carboxamide]
19 |  | 0.5 to 5 | CCOc1ccc([C@H](COC)NC(=O)C2C3Oc4ccc(C#N)cc4C32)cc1 (stereo partly drawn) [Example B14, exo-5-cyano-N-[(1R)-1-(4-ethoxyphenyl)-2-methoxyethyl]-1a,6b-dihydro-1H-cyclopropa[b][1]benzofuran-1-carboxamide]
20 | 0.52 | 0.5 to 5 | O=C(NCc1cc(-c2ccccn2)no1)C1C2Oc3ccc(F)cc3C21 (stereo not drawn) [Example C46, exo-5-fluoro-N-{[3-(pyridin-2-yl)-1,2-oxazol-5-yl]methyl}-1a,6b-dihydro-1H-cyclopropa[b][1]benzofuran-1-carboxamide]
21 | 0.19 | 0.1 to 0.5 | O=C(NCc1cc(-c2ccccc2)no1)C1C2Oc3ccc(F)cc3C21 (stereo not drawn) [Example C32, exo-5-fluoro-N-[(3-phenyl-1,2-oxazol-5-yl)methyl]-1a,6b-dihydro-1H-cyclopropa[b][1]benzofuran-1-carboxamide]
22 |  | 0.1 to 0.5 | CCOc1ccc([C@H](COC)NC(=O)C2C3Oc4c(Cl)cccc4C32)cc1 (stereo partly drawn) [Example B6, exo-3-chloro-N-[(1R)-1-(4-ethoxyphenyl)-2-methoxyethyl]-1a,6b-dihydro-1H-cyclopropa[b][1]benzofuran-1-carboxamide]
23 | 1.6 | 0.5 to 5 | O=C(N[C@@H]1CCc2c(O)cccc21)C1C2Oc3ccc(F)cc3C21 (mixture of isomers) [Example C10, exo-5-fluoro-N-(4-hydroxy-2,3-dihydro-1H-inden-1-yl)-1a,6b-dihydro-1H-cyclopropa[b][1]benzofuran-1-carboxamide]
24 | 2.3 | 0.5 to 5 | O=C(NCc1ccc(F)cc1F)C1C2Oc3ccc(F)cc3C21 (stereo not drawn) [Example C23, exo-N-[(2,4-difluorophenyl)methyl]-5-fluoro-1a,6b-dihydro-H-cyclopropa[b][1]benzofuran-1-carboxamide]
25 | 3.4 | 0.5 to 5 | O=C(NCc1cc(F)ccc1F)C1C2Oc3ccc(F)cc3C21 (stereo not drawn) [Example C22, exo-N-[(2,5-difluorophenyl)methyl]-5-fluoro-1a,6b-dihydro-1H-cyclopropa[b][1]benzofuran-1-carboxamide]
26 |  | 5 to 50 | COc1cc(CNC(=O)C2C3Oc4ccc(F)cc4C32)on1 (stereo not drawn) [Example C45, exo-5-fluoro-N-[(3-methoxy-1,2-oxazol-5-yl)methyl]-1a,6b-dihydro-1H-cyclopropa[b][1]benzofuran-1-carboxamide]
27 | 0.95 | 0.5 to 5 | Cc1cc(F)cc(CNC(=O)C2C3Oc4ccc(F)cc4C32)c1 (stereo not drawn) [Example C24, exo-5-fluoro-N-[(3-fluoro-5-methylphenyl)methyl]-1a,6b-dihydro-1H-cyclopropa[b][1]benzofuran-1-carboxamide]
28 | 0.86 | 0.5 to 5 | O=C(N[C@H]1CCOc2cc(F)ccc21)C1C2Oc3ccc(F)cc3C21 (stereo partly drawn) [Example C6, exo-5-fluoro-N-[(4S)-7-fluoro-3,4-dihydro-2H-1-benzopyran-4-yl]-1a,6b-dihydro-1H-cyclopropa[b][1]benzofuran-1-carboxamide]
29 | 0.76 | 0.5 to 5 | CCOc1ccc([C@H](COC)NC(=O)C2C3Oc4ccc(F)cc4C32)cc1 (stereo partly drawn) [Example B5, exo-N-[(1R)-1-(4-ethoxyphenyl)-2-methoxyethyl]-5-fluoro-1a,6b-dihydro-1H-cyclopropa[b][1]benzofuran-1-carboxamide]
30 |  | 0.5 to 5 | O=C(NCc1nc2ccccc2s1)C1C2Oc3ccc(F)cc3C21 (stereo not drawn) [Example C28, 2-{[(exo-5-fluoro-1a,6b-dihydro-1H-cyclopropa[b][1]benzofuran-1-carbonyl)amino]methyl}-1,3-benzothiazole]
31 | 2.8 | 0.5 to 5 | CCOc1ccc([C@H](COC)NC(=O)C2C3Oc4ccc(-c5c(C)noc5C)cc4C32)cc1 (stereo partly drawn) [Example B10, exo-5-(3,5-dimethyl-1,2-oxazol-4-yl)-N-[(1R)-1-(4-ethoxyphenyl)-2-methoxyethyl]-1a,6b-dihydro-1H-cyclopropa[b][1]benzofuran-1-carboxamide]
32 | 1.8 | 0.5 to 5 | Cc1ccccc1CNC(=O)C1C2Oc3ccc(F)cc3C21 (stereo not drawn) [Example C31, exo-5-fluoro-N-[(2-methylphenyl)methyl]-1a,6b-dihydro-1H-cyclopropa[b][1]benzofuran-1-carboxamide]
33 | 1.8 | 0.5 to 5 | COC(=O)C(NC(=O)C1C2Oc3ccc(F)cc3C21)c1cccc(Cl)c1 (stereo not drawn) [Example C29, methyl 2-(3-chlorophenyl)-2-[(exo-5-fluoro-1a,6b-dihydro-1H-cyclopropa[b][1]benzofuran-1-carbonyl)amino]acetate]
